IC50 and Kd data for five molecules are collected here from publication PMC10901774, “Mirror-image ligand discovery enabled by single-shot fast-flow synthesis of D-proteins” (Nature Communications, 2024).

Assay [1] deals with T1, CHIP23-303 recombinant protein (Homo sapiens, UniProt Q9UNE7).
T1 construct: 6xHis (N, cleaved yes); TEV cleavage site (N, cleaved yes); made in house; host or cells: E. coli BL21 CodonPlus (pET21b-derived vector)
T1 sequence (Q9UNE7 23-303): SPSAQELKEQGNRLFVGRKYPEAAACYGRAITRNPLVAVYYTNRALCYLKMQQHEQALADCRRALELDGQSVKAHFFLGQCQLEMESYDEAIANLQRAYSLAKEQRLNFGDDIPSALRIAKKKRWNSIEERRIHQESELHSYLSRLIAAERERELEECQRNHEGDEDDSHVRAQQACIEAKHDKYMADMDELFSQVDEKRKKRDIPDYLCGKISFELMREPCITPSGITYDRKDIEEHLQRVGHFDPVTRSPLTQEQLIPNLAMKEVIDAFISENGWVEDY
Nature of the assay: competition fluorescence polarization against FAM-Hsp70 peptide loaded CHIP. In kind it is binding. To be noted: SI table 1.27.1, read-out: Measured IC50. The source says:
Not limited to known D-proteins, we nominated an original target for MIPD screening, CHIP, and identified three macrocyclic D-peptide binders. CHIP is a member of the RING/U-Box family of E3 ligases that direct the ubiquitination of chaperones[66] and their bound client proteins[67],[68] (Fig. 6A). This interaction is driven by a common (I/M)EEVD motif present on the C-terminus of heat shock protein 70 (Hsp70) and Hsp90 family members that is recognized by the TPR domain of CHIP[69] (Fig. 6B). Degradation driven by CHIP is active in a diverse range of cellular processes from monitoring protein quality control[68] to mediating interferon-γ signaling. Masking of the CHIP-TPR domain can in theory modulate these signaling pathways and as a result is actively being pursued[69],[71]. In addition, CHIP belongs to the same protein family as MDM2 (E3 ubiquitin ligases) and has potential therapeutic relevance by being implicated in neurological disease. For these reasons, we hypothesized that this domain would be a valuable target for D-peptide discovery, and successfully isolated the protein in its mirror image form for MIPD screening. […] All three clusters feature conserved terminal residues with carboxylate functionalities (dD3 in CHIP.C1, dD1/dE2 in CHIP.C2, and dD12 in CHIP.C3), consistent with the conserved terminal aspartic acid residues found on CHIP substrates. Hydrophobic residues are retained in the i,i + 4/5 positions relative to the anchoring aspartic acid residue: dW6 in CHIP.C1, dW6 in CHIP.C2, and dA8 in CHIP.C3, presumably for interaction with the hydrophobic TPR groove.
Supplementary Figure 14. D-H109 SPR to Recombinant MDM2. Sensorgrams and steady state affinity plots of D-H109 binding to recombinant MDM2 are shown.
1.27. CHIP Peptide Binders from Phage Display
1.27.1. CHIP Binder Sequences
Cluster ID Sequence Measured IC50
CHIP.C1 H201ǂ Ac-pwedcawfawacyni-NH2 470 nM
CHIP.C2 H203ǂ Ac-phemcywadaycrys-NH2 550 nM
CHIP.C2 H204ǂ Ac-pldlcywaslhcivs-NH2 770 nM
Listed sequences were cyclized between C5 and C12 with N,N'-(1,4-phenylene)bis(2-bromoacetamide) . ǂSequences were selected for co-crystallization with CHIP.
1.27.2. CHIP Binder FP Validation
For the competition FP of CHIP, Helicons at 10 mM in DMSO were serially diluted 1:3 in DMSO for a total of 11 concentrations using a Mosquito LV (SPT Labtech), then diluted 1000-fold in buffer (1 x HBS-P+, Cytiva) in duplicate by the Mosquito LV (SPT Labtech) into a black polystyrene 384-well plate (Corning) (11-point three-fold peptide dilution series with top concentration = 10 μM). […]
HSP70). The plate was incubated and protected from light for 1 hour at room temperature prior to reading. Reads were performed on a CLARIOstar plate reader (BMG Labtech) with excitation at 485 nm, emission at 525 nm, and cutoff at 504 nm. […]

Assay [2] addresses T2, recombinant MDM2 (biotinylated MDM2[25-109]) (Homo sapiens, UniProt Q00987).
T2 construct: MDM2 (residues 25-109); made in house
Nature of the assay: SPR of macrocyclic D-peptides to recombinant MDM2. In kind it is binding. To be noted: SI table 1.26.1, Biacore 8K, 25 °C, 1x HBS-P+ with 1% DMSO, top concentration 5 μM, N = 1, * = listed KD value is beyond tested concentrations, read-out: Measured KD. From the text: We identified three binding clusters selective for D-MDM2 with phage display screening (Fig. 4A and SI Section 1.26). In brief, immobilized D-MDM2 from AFPS was screened against an unbiased phage library of 10^8 members displaying macrocyclic α-helical peptides. We sequenced phage particles that remained bound to the targets after washing using next-generation sequencing. Comparisons of sequencing reads to a spiked-in internal reference allowed for a semi-quantitative read-out of binding affinity as a function of protein bait concentration. […] Consistent with previously described α-helical peptide binders to MDM2[64],[65], all three clusters contain anchoring N-terminal tryptophan residues (dW2 in MDM2.C1, dW1 in MDM2.C2, and dW1 in MDM2.C3), and show conserved hydrophobic residues on the same α-helical face as the tryptophan residue (i,i + 4/5 and i,i + 8/9 relative to dW on each cluster). To validate the specificity of each binding cluster, we synthesized representative binding peptides in the D-form (Fig. 4B, D-H101 from MDM2.C1, D-H102 from MDM2.C2, and D-H103 from MDM2.C3) and measured their affinity to recombinant MDM2 with SPR. We observed binding constants of 5.5 μM, 2.4 μM, and 0.88 μM, respectively (Fig. 4C and Supplementary Figs. 6–8).
1.24. YAP1-WW1-WW2 Protein Expression […]
Cluster ID Sequence Measured KD […]

[3] abbreviates: 400 nM CHIP23-303, 20 nM probe 5FAM-bAla-[…], 1 hour room temperature, duplicate.

pIC50, pKd: −log10 of the molar value. Where two headings read alike, the source gives them in different places. *1 amine or outer side, *2 acyl side, *3 side chain or, on linkers, in order; H or OH if unused. Where a SMILES comes first, the peptide text is derived from it. Bridges are numbered along the chain shown (N, C = ends). [ ]: non-standard residue; d: D form. Phenylene(1,4-NHCOCH2)2 = O=C(C[*:1])Nc1ccc(NC(=O)C[*:2])cc1

T2 sequence (Q00987 25-109): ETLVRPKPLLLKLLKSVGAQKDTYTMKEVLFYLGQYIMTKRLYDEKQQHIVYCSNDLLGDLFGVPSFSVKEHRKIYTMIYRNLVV

For the molecule `CC[C@@H](C)[C@@H](NC(=O)[C@H]1CSCC(=O)Nc2ccc(cc2)NC(=O)CSC[C@@H](NC(=O)[C@@H](CC(C)C)NC(=O)[C@@H](CC(=O)O)NC(=O)[C@@H](CC(C)C)NC(=O)[C@H]2CCCN2C(C)=O)C(=O)N[C@H](Cc2ccc(O)cc2)C(=O)N[C@H](Cc2c[nH]c3ccccc23)C(=O)N[C@H](C)C(=O)N[C@H](CO)C(=O)N[C@H](CC(C)C)C(=O)N[C@H](Cc2c[nH]cn2)C(=O)N1)C(=O)N[C@@H](C(=O)N[C@H](CO)C(N)=O)C(C)C` [H204] (Ac-[dP][dL][dD][dL][dC][dY][dW][dA][dS][dL][dH][dC][dI][dV][dS]-NH2; linker 5-12 via Phenylene(1,4-NHCOCH2)2), the negative-log IC50 (pIC50) in assay [1] (setting [3]) is 6.11. On to `CC(=O)N[C@H](CC(=O)O)C(=O)N1CCC[C@@H]1C(=O)N[C@H](C)C(=O)N[C@H](CO)C(=O)N[C@H](CCCNC(=N)N)C(=O)N[C@H](CC(N)=O)C(=O)N[C@@H]1CSCC(=O)Nc2ccc(cc2)NC(=O)CSC[C@H](C(=O)N[C@H](CCC(=O)O)C(=O)N[C@H](Cc2ccc(O)cc2)C(=O)N[C@H](Cc2c[nH]c3ccccc23)C(N)=O)NC(=O)[C@@H](CC(C)C)NC(=O)[C@@H](Cc2c[nH]cn2)NC(=O)[C@@H](C)NC(=O)[C@@H](C)NC(=O)[C@@H](Cc2c[nH]c3ccccc23)NC(=O)[C@@H](CCC(N)=O)NC1=O` [H107] (Ac-[dD][dP][dA][dS][dR][dN][dC][dQ][dW][dA][dA][dH][dL][dC][dE][dY][dW]-NH2; linker 7-14 via Phenylene(1,4-NHCOCH2)2), for which the negative-log Kd (pKd) in assay [2] was 5.96.

As to `CC[C@@H](C)[C@@H](NC(=O)[C@@H](CC(N)=O)NC(=O)[C@@H](Cc1ccc(O)cc1)NC(=O)[C@H]1CSCC(=O)Nc2ccc(cc2)NC(=O)CSC[C@@H](NC(=O)[C@@H](CC(=O)O)NC(=O)[C@@H](CCC(=O)O)NC(=O)[C@@H](Cc2c[nH]c3ccccc23)NC(=O)[C@H]2CCCN2C(C)=O)C(=O)N[C@H](C)C(=O)N[C@H](Cc2c[nH]c3ccccc23)C(=O)N[C@H](Cc2ccccc2)C(=O)N[C@H](C)C(=O)N[C@H](Cc2c[nH]c3ccccc23)C(=O)N[C@H](C)C(=O)N1)C(N)=O` [D-H201] (Ac-[dP][dW][dE][dD][dC][dA][dW][dF][dA][dW][dA][dC][dY][dN][dI]-NH2; linker 5-12 via Phenylene(1,4-NHCOCH2)2), the negative logarithm of the IC50 (pIC50) in assay [1] (setting [3]) is 6.33.

On to `CSCC[C@@H](NC(=O)[C@@H](CCC(=O)O)NC(=O)[C@@H](Cc1c[nH]cn1)NC(=O)[C@H]1CCCN1C(C)=O)C(=O)N[C@@H]1CSCC(=O)Nc2ccc(cc2)NC(=O)CSC[C@H](C(=O)N[C@H](CCCNC(=N)N)C(=O)N[C@H](Cc2ccc(O)cc2)C(=O)N[C@H](CO)C(N)=O)NC(=O)[C@@H](Cc2ccc(O)cc2)NC(=O)[C@@H](C)NC(=O)[C@@H](CC(=O)O)NC(=O)[C@@H](C)NC(=O)[C@@H](Cc2c[nH]c3ccccc23)NC(=O)[C@@H](Cc2ccc(O)cc2)NC1=O` [D-H203] (Ac-[dP][dH][dE][dM][dC][dY][dW][dA][dD][dA][dY][dC][dR][dY][dS]-NH2; linker 5-12 via Phenylene(1,4-NHCOCH2)2), for which, in assay [1] (setting [3]), the pIC50 is 6.26. For `CC(=O)N1CCC[C@@H]1C(=O)N[C@H](Cc1c[nH]c2ccccc12)C(=O)N[C@H](Cc1c[nH]c2ccccc12)C(=O)N[C@H](CCC(=O)O)C(=O)N[C@@H]1CSCC(=O)Nc2ccc(cc2)NC(=O)CSC[C@H](C(=O)N[C@H](CC(=O)O)C(=O)N[C@H](Cc2ccccc2)C(=O)N[C@H](CCCNC(=N)N)C(N)=O)NC(=O)[C@@H](CC(=O)O)NC(=O)[C@@H](CC(=O)O)NC(=O)[C@@H](C)NC(=O)[C@@H](CCC(N)=O)NC(=O)[C@@H](CO)NC(=O)[C@@H](CC(C)C)NC1=O` [D-H202] (Ac-[dP][dW][dW][dE][dC][dL][dS][dQ][dA][dD][dD][dC][dD][dF][dR]-NH2; linker 5-12 via Phenylene(1,4-NHCOCH2)2), the pIC50 in assay [1] (unit as printed in the cell of H202, same competition FP) was 5.91.
